Test results published in patent US20250375544A1, “DUAL MODE RADIOTRACER AND -THERAPEUTICS” (TECHNISCHE UNIVERSITÄT MÜNCHEN, priority 2021, published 2025).

Key:
[1] = tested on: LNCaP tumor xenograft-bearing CB17-SCID mice; assay: Biodistribution in LNCaP tumor xenograft-bearing CB17-SCID mice
[2] = tested on: LNCaP tumor xenograft-bearing CB17-SCID mouse; assay: Metabolite analysis 1 h p.i. (radio-RP-HPLC of organ and body fluid extracts); type: in vivo, mice
Method: […] (9.64 MBq) was injected into the tail vein of a LNCaP tumor xenograft-bearing CB17-SCID mouse. The animal was sacrificed 1 h p.i. and subjected to the standard procedure for biodistribution studies. In addition, urine was taken from all mice that were investigated in this experiment (8.4-9.0 MBq) and pooled (n=5). Relevant dissected organs (tumor, kidneys, liver) and body fluids (blood and urine) were collected, homogenized if necessary and subjected to mechanochemical as well as solid phase extraction (SPE).
Four 2 mL LoBind tubes were equipped with steel and ceramic beads from Lysis Tubes W (analytikjena, Jena, Germany) for kidneys, tumor and liver (bisected). 1 mL radioimmunoprecipitation assay (RIPA) buffer containing 2.0 μmol of 2-PMPA was added to each tube and the organs were homogenized with a MM-400 ball mill (Retsch GmbH, Haan, Germany) at 30 Hz for 20 min. Afterwards, the homogenates were transferred to LoBind tubes free from steel and ceramic beads and centrifuged (15,200 rpm, 10 min, 21° C.). The first supernatants were stored, and the precipitates were again subjected to mechanochemical extraction with 1 mL RIPA buffer (2.0 μmol PMPA) at 30 Hz for 20 min. After centrifugation (15,200 rpm, 10 min, 21° C.), also the second supernatants were kept for SPE.
After cardiac puncture, 1 mL Tracepur®-H2O was directly added to the collected blood sample and centrifuged twice (13,000 rpm, 5 min) to separate the plasma from the blood cells. The precipitate was dissolved in 500 μL Tracepur®-H2O and together with the first supernatant again centrifuged (13,000 rpm, 5 min). Both supernatants were kept for SPE.
Pooled urine samples were centrifuged (13,000 rpm, 5 min) and the supernatant was directly analyzed via radio-RP-HPLC.
For solid phase extraction, the supernatants were loaded onto Strata-X cartridges (200 mg), which were preconditioned with 5 mL MeOH and 5 mL H2O (eight cartridges in total, for all organ and blood supernatants). The cartridges were washed with 1 mL Tracepur®-H2O and dried prior to elution. For each cartridge, 750 μL of MeCN/H2O (6/4, 0.1% TFA) were used for elution and the extracts were analyzed via radio-RP-HPLC.
Besides biodistribution and μSPECT/CT studies, [^177Lu]Lu-11 (tetrazole) was analyzed according to its metabolic stability 1 h p.i. Relevant dissected organs (tumor, kidney, liver) and body fluids (blood and urine) were collected, homogenized if necessary and subjected to extraction of the incorporated activity. […] The respective radio-RP-HPLC analyses of extracts from homogenized organs and body fluids are depicted in FIG. 10.

LNCaP cells = type: cell-based, human; details: 1 h, 37° C., 1.0 nM ^177Lu-compound, normalized to ([^125I]I-BA)KuE
[3] = Wangler et al., Bioconjug Chem. 2010; cited from earlier work

CC(C)(C)[Si](F)(c1ccc(C(=O)NCC(NC(=O)CN2CCN(CC(=O)[O-])CCN(CC(=O)[O-])CCN(CC(=O)[O-])CC2)C(=O)NC(CCCCNC(=O)CCC(=O)NCCCC(NC(=O)CCC(NC(=O)NC(CCc2nnn[nH]2)C(=O)O)C(=O)O)C(=O)O)C(=O)O)cc1)C(C)(C)C.[177Lu+3] (stereo not shown) [[^177Lu]Lu-11, [^177Lu]Lu-Tetrazole Derivative 11]
Biodistribution Adrenals ([1]; 1 h p.i.): 0.61 ± 0.42 % ID/g | Biodistribution Blood ([1]; 1 h p.i.): 1.09 ± 0.30 % ID/g | Biodistribution Bone ([1]; 1 h p.i.): 0.47 ± 0.44 % ID/g | Biodistribution Heart ([1]; 1 h p.i.): 0.41 ± 0.04 % ID/g | Biodistribution Intestine ([1]; 1 h p.i.): 0.67 ± 0.21 % ID/g | Biodistribution Kidneys ([1]; 1 h p.i.): 33.2±3.8 % ID/g | Biodistribution Liver ([1]; 1 h p.i.): 0.74 ± 0.17 % ID/g | Biodistribution Lung ([1]; 1 h p.i.): 1.23 ± 0.27 % ID/g | Biodistribution Muscle ([1]; 1 h p.i.): 0.15 ± 0.03 % ID/g | Biodistribution Pancreas ([1]; 1 h p.i.): 0.33 ± 0.11 % ID/g | Biodistribution Parotid gland ([1]; 1 h p.i.): 0.56 ± 0.08 % ID/g | Biodistribution Spleen ([1]; 1 h p.i.): 1.04 ± 0.15 % ID/g | Biodistribution Stomach ([1]; 1 h p.i.): 1.55 ± 1.67 % ID/g | Biodistribution Submandibular gland ([1]; 1 h p.i.): 0.40 ± 0.05 % ID/g | Biodistribution Tumor ([1]; 1 h p.i.): 3.40±0.63 % ID/g | Ratio Tumor-to-blood ([1]; 1 h p.i.): 3.46 ± 1.62 | Ratio Tumor-to-kidney ([1]; 1 h p.i.): 0.10 ± 0.03 | Ratio Tumor-to-liver ([1]; 1 h p.i.): 5.00 ± 2.11 | Ratio Tumor-to-muscle ([1]; 1 h p.i.): 24.9 ± 10.2 | Ratio Tumor-to-parotid gland ([1]; 1 h p.i.): 6.20 ± 1.74 | Ratio Tumor-to-submandibular gland ([1]; 1 h p.i.): 8.74 ± 2.52 | tumor-to-submandibularis and -parotidea ratios at 1 h p.i. compared to respective values at 24 h p.i. ([1]; 1 h p.i. vs 24 h p.i.): two-fold lower | Biodistribution Adrenals ([1]; 24 h p.i.): 0.17 ± 0.19 % ID/g | Biodistribution Blood ([1]; 24 h p.i.): 0.00 ± 0.00 % ID/g | Biodistribution Bone ([1]; 24 h p.i.): 0.18 ± 0.04 % ID/g | Biodistribution Heart ([1]; 24 h p.i.): 0.02 ± 0.00 % ID/g | Biodistribution Intestine ([1]; 24 h p.i.): 0.52 ± 0.68 % ID/g | Biodistribution Kidneys ([1]; 24 h p.i.): 3.23 ± 0.77 % ID/g | Biodistribution Liver ([1]; 24 h p.i.): 0.18 ± 0.04 % ID/g | Biodistribution Lung ([1]; 24 h p.i.): 0.05 ± 0.02 % ID/g | Biodistribution Muscle ([1]; 24 h p.i.): 0.02 ± 0.01 % ID/g | Biodistribution Pancreas ([1]; 24 h p.i.): 0.02 ± 0.00 % ID/g | Biodistribution Parotid gland ([1]; 24 h p.i.): 0.06 ± 0.02 % ID/g | Biodistribution Spleen ([1]; 24 h p.i.): 0.11 ± 0.03 % ID/g | Biodistribution Stomach ([1]; 24 h p.i.): 0.12 ± 0.11 % ID/g | Biodistribution Submandibular gland ([1]; 24 h p.i.): 0.04 ± 0.01 % ID/g | Biodistribution Tumor ([1]; 24 h p.i.): 0.68 ± 0.16 % ID/g | Ratio Tumor-to-blood ([1]; 24 h p.i.): 227 ± 50 | Ratio Tumor-to-kidney ([1]; 24 h p.i.): 0.22 ± 0.06 | Ratio Tumor-to-liver ([1]; 24 h p.i.): 3.74 ± 0.50 | Ratio Tumor-to-muscle ([1]; 24 h p.i.): 55.9 ± 24.3 | Ratio Tumor-to-parotid gland ([1]; 24 h p.i.): 12.2 ± 1.7 | Ratio Tumor-to-submandibular gland ([1]; 24 h p.i.): 16.9 ± 2.2 | factor by which tumor-to-submandibular gland and tumor-to-parotid gland ratios declined ([1]; 24 h p.i., in comparison to [^177Lu]Lu-PSMA-10): 8 | metabolite with higher hydrophilicity, amount ([2]; blood): 8.5% | metabolite with higher hydrophilicity, amount ([2]; kidney): 11.7% | metabolite with higher hydrophilicity ([2]; liver homogenate): not detectable | more lipophilic metabolite (tR=20.5 min), amount ([2]; liver homogenate): 28.0% | metabolite with higher hydrophilicity, amount ([2]; tumor): 7.1% | metabolite with higher hydrophilicity, amount ([2]; urine): 18.7% | % Internalization compared to the reference (LNCaP cells): 9.9±3.2%

SIFA-Asn(AcNH-p-Glc)-PEG-Tyr^3-octreotate
log P(ow) [3]: 0.96
